The results in this text go back to patent US20210346357A1 (priority 2020, published 2021).

One assay addresses Abl1 (Homo sapiens, UniProt P00519). Nature of the assay: Biochemical ABL1 kinase assay (33P-ATP). The following applies: read-out: inhibition in the Abl1 assay.
The next assay concerns the target Abl2 (Homo sapiens, UniProt P42684). Nature of the assay: biochemical. To be noted: read-out: inhibition in the Abl2 assay.

The structures appear in SMILES notation.

Abl2, sequence (P42684 whole entry): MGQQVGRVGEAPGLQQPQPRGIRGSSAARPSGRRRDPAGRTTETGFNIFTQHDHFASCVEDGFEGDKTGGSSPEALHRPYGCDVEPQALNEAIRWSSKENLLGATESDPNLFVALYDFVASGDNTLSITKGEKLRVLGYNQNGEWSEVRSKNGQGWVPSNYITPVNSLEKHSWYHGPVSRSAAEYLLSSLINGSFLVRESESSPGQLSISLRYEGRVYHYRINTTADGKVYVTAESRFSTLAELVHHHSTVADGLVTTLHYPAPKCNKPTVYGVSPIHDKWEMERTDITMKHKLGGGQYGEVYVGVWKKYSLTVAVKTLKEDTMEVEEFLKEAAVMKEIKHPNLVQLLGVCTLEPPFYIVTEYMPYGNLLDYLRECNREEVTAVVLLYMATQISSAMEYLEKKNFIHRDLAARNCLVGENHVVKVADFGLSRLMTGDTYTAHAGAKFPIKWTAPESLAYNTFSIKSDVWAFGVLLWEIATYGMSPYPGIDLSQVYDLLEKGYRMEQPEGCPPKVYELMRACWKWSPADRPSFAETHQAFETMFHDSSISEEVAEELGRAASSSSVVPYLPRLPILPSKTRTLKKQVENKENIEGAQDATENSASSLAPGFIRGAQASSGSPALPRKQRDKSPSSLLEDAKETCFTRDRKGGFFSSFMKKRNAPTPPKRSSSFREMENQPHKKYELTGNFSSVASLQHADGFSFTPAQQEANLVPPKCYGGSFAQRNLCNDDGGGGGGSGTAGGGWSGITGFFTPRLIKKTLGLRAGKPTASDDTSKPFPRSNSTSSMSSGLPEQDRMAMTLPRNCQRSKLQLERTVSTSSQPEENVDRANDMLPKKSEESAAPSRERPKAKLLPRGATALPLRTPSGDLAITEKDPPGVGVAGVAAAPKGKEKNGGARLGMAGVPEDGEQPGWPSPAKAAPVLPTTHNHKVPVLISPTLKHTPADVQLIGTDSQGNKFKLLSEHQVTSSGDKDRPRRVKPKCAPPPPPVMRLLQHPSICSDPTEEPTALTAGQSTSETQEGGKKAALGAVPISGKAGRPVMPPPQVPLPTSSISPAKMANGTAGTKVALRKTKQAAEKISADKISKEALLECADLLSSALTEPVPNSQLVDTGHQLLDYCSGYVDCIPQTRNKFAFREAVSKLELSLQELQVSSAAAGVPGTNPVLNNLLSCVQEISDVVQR
Abl1, sequence (P00519 whole entry): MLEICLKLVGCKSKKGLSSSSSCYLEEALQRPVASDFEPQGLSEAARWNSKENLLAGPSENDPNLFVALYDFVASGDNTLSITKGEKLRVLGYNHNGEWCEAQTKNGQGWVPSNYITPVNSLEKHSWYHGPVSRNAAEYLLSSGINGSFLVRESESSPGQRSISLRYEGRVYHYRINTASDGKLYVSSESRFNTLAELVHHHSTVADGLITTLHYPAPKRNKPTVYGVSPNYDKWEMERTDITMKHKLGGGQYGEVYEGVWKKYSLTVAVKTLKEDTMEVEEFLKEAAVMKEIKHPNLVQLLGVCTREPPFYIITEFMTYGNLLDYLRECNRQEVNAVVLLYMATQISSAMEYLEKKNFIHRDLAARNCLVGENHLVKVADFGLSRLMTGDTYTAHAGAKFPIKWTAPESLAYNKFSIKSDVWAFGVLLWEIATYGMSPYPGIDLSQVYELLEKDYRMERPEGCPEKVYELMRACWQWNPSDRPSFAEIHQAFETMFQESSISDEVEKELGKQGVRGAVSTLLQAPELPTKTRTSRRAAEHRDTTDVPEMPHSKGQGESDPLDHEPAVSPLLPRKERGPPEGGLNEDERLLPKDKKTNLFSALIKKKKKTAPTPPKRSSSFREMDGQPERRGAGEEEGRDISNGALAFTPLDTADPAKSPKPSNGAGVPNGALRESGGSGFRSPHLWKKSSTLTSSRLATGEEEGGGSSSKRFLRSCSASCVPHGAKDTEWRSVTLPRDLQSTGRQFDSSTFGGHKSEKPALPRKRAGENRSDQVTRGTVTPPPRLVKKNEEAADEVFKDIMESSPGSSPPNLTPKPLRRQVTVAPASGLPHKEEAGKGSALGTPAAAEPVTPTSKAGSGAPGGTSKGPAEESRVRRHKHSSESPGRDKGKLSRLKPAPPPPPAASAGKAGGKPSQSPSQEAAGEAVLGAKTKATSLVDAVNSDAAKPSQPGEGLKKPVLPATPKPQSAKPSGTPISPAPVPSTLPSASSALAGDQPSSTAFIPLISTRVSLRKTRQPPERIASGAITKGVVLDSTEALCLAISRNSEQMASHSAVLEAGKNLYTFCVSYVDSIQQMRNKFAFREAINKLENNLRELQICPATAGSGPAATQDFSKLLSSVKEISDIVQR

For `CCS(=O)(=O)N1CC(CC#N)(n2cc(-c3ncnc4[nH]ccc34)cn2)C1` [baricitinib, reference compound], the inhibition (as a rule, the change of the read-out against control, counted positive when it falls) at 10 µM on Abl1 is 80%; on Abl2 it was 35%.
